Assay results reported in patent US20030161893A1, “PTPase inhibitors and methods of using the same” (priority 2001, published 2003).

Legend:
GSTm8 = assay: In vitro PTPase assay, GSTm8; assay type: biochemical; details: 3-4 μg/ml or 10-100 μg/ml
PRL-1 = target: T1, PRL-1 (Homo sapiens, UniProt Q93096); assay: In vitro PTPase assay, recombinant PRL-1; assay type: biochemical; details: 0.1-100 μg/ml
T1 construct: cDNAs of human PRL-1, PRL-2 and PRL-3 coding region were derived by RT-PCR from H9 cells; made in house; host or cells: DH5a bacteria (E. coli)
From the text: (§1) Sodium stibogluconate, suramin, sodium orth ovanadate and GST fusion protein of SHP-1 have been described previously (Pathak et al., J. Imumol. 167, 3391 (2001)). Meglumine antimonate was obtained from Aventis. cDNAs of human PRL-1, PRL-2 and PRL-3 coding region were derived by RT-PCR from H9 cells (Safai, et al., Lancet 1, 1438 (1984)) and inserted in frame into the pGEX vector. cDNA of PRL-1R86 was generated by recombinant DNA technique using PRL-1 cDNA as template following established procedures (Jiao, et al., Mol. Cell. Biol. 16, 6985 (1996)). […]
(§2) In vitro PTPase assays were used to determine the effects of compounds on recombinant PTPases, following established procedures using a synthetic phosphotyrosine peptide or DiFMUP as the substrate (Pathak et al., J. Imumol. 167, 3391 (2001)). […] PTPase activity of individual reactions was measured by adding 100 μL of malachite green solution (UBI) and then quantifying the amounts of free phosphate cleaved by the PTPase from the peptide substrate by spectrometry (OD660 nm). […] Relative PTPase activities were calculated based on the formula: (PTPase activity in the presence of an inhibitory compound/PTPase activity in the absence of the compound)×100%. […]

PRL-2 = target: T2, PRL-2 (Homo sapiens, UniProt Q12974); assay: In vitro PTPase assay, recombinant PRL-2; assay type: biochemical
T2 construct: cDNAs of human PRL-1, PRL-2 and PRL-3 coding region were derived by RT-PCR from H9 cells; made in house; host or cells: DH5a bacteria (E. coli)
From the text: as §1, §2

WM9 cells = assay: Cell proliferation assay (MTT), WM9 melanoma cells; assay type: cell-based, human
Procedure: For cell proliferation assays, cells were grown in 10% FCS culture medium containing various amounts of IFNs and/or sodium stibogluconate in 96 well plates and cultured at 37° C. for 3 or 6 days as indicated. The numbers of viable cells in proliferation assays were determined by MTT assays as described in Phatak et al., J. Immunol. 167, 3391 (2001).
Dose response curves were generated for each drug alone, and also the combinations. Median effect plots were generated for IFNs alone, sodium stibogluconate alone, and the combination. The combination index (CI) was determined and plotted vs. fraction affected (FA). Data were analyzed in both modes, mutually exclusive and mutually nonexclusive. The interaction between two mutually nonexclusive drugs is described by the Equation CI=D1/D×1+D2/D×2+D1D2/D×1D×2, where D×1 and D×2 are the doses of drug 1 and drug 2 that are required to inhibit growth×%. […] When CI<1, drugs are synergistic, when CI=1, drugs are additive, and when CI>1, drugs are antagonistic.

SHP-1 = target: T3, SHP-1 (Mus musculus, UniProt P29351); assay: In vitro PTPase assay, GST/SHP-1 fusion protein; assay type: biochemical; details: 3-4 μg/ml or 10-100 μg/ml
T3 construct: made in house
Procedure: In vitro PTPase activities were measured using the commercial protein tyrosine phosphatase assay kit (Upstate Biotechnology, Inc. (“UBI”)) following established procedure known to one of skill in the art. […] 100 μl of Malachite Green solution was added and incubated for 5 minutes, and the absorbance at 660 nm was measured after 5 minutes.
The beads were then either subjected to in vitro PTPase assays or washed 3 times in Tris buffer then subjected to in vitro PTPase assays.
Briefly, individual PTPases (0.1 μg/reaction) in 50 μL of PTPase buffer (50 mM Tris, pH 7.4) were incubated at 22° C. for 10 minutes or as indicated in the absence or presence of inhibitory compounds. […] […] […] Relative PTPase activities were calculated based on the formula: (PTPase activity in the presence of an inhibitory compound/PTPase activity in the absence of the compound)×100%. To assess the reversibility of PTPase inhibition, GST fusion proteins of the PTPases bound on glutathione beads (Pharmacia) were pre-incubated with cold Tris buffer (50 mM Tris, pH 7.0) or Tris buffer containing the inhibitor at 4° C. for 30 minutes. The beads were then washed three times in cold Tris buffer or not washed prior to subjecting to in vitro PTPase assays.

PRL-3 = target: T4, PRL-3 (Homo sapiens, UniProt O75365); assay: In vitro PTPase assay, recombinant PRL-3; assay type: biochemical; details: 0.1-100 μg/ml
T4 construct: cDNAs of human PRL-1, PRL-2 and PRL-3 coding region were derived by RT-PCR from H9 cells; made in house; host or cells: DH5a bacteria (E. coli)
From the text: Sodium stibogluconate, suramin, sodium orth ovanadate and GST fusion protein of SHP-1 have been described previously (Pathak et al., J. Imumol. 167, 3391 (2001)). Meglumine antimonate was obtained from Aventis. cDNAs of human PRL-1, PRL-2 and PRL-3 coding region were derived by RT-PCR from H9 cells (Safai, et al., Lancet 1, 1438 (1984)) and inserted in frame into the pGEX vector. cDNA of PRL-1R86 was generated by recombinant DNA technique using PRL-1 cDNA as template following established procedures (Jiao, et al., Mol. Cell. Biol. 16, 6985 (1996)). GST fusion proteins of the PRL phosphatases were prepared from DH5a bacteria transformed with the pGEX fusion protein constructs as described previously (Yi, et al., Mol. Cell. Biol. 12, 836 (1992)). cDNAs encoding the PRLs tagged at the N-termini with the Flag epitope (Castrucci, et al., J. Virol. 66, 4647 (1992)) were generated via recombinant DNA technique, sequenced to confirm their identities and cloned into the pBabepuro vector (Yang, et al., Blood 91, 3746 (1998)). Anti-Flag monoclonal antibody (M2, Sigma) was purchased from a commercial source. A synthetic phosphotyrosine peptide (Arg-Arg-Leu-Ile-Glu-Asp-Ala-Gle-Tyr-Ala-Ala-Arg-Gly (SEQ ID NO: 3), wherein the tyrosine is phosphorylated; UBI) and DiFMUP (6, 8-difluoro-4-methylumbelliferyl phosphate, Molecular Probes) were purchased as substrates for PTPase assays.
In vitro PTPase assays were used to determine the effects of compounds on recombinant PTPases, following established procedures using a synthetic phosphotyrosine peptide or DiFMUP as the substrate (Pathak et al., J. Imumol. 167, 3391 (2001)). Briefly, individual PTPases (0.1 μg/reaction) in 50 μL of PTPase buffer (50 mM Tris, pH 7.4) were incubated at 22° C. for 10 minutes or as indicated in the absence or presence of inhibitory compounds. Substrates (0.2 mM phosphotyrosine peptide) were then added and allowed to react at 22° C. for 18 hrs. PTPase activity of individual reactions was measured by adding 100 μL of malachite green solution (UBI) and then quantifying the amounts of free phosphate cleaved by the PTPase from the peptide substrate by spectrometry (OD660 nm). PTPase assays using DiFMUP as a substrate were conducted following a previously described procedure (Matter, et al., Biochem. Biophys. Res. Comm. 283, 1061 (2001)). Relative PTPase activities were calculated based on the formula: (PTPase activity in the presence of an inhibitory compound/PTPase activity in the absence of the compound)×100%. To assess the reversibility of PTPase inhibition, GST fusion proteins of the PTPases bound on glutathione beads (Pharmacia) were pre-incubated with cold Tris buffer (50 mM Tris, pH 7.0) or Tris buffer containing the inhibitor at 4° C. for 30 minutes. The beads were then washed three times in cold Tris buffer or not washed prior to subjecting to in vitro PTPase assays.

MKP1 = target: T5, MKP1 (Homo sapiens, UniProt P28562); assay: In vitro PTPase assay, GST/MKP1 fusion protein; assay type: biochemical
T5 construct: a pGEX construct containing the coding region of MKP1 cDNA derived by RT-PCR; made in house; host or cells: DH5a bacteria (E. coli)
T5 sequence (P28562 1-367): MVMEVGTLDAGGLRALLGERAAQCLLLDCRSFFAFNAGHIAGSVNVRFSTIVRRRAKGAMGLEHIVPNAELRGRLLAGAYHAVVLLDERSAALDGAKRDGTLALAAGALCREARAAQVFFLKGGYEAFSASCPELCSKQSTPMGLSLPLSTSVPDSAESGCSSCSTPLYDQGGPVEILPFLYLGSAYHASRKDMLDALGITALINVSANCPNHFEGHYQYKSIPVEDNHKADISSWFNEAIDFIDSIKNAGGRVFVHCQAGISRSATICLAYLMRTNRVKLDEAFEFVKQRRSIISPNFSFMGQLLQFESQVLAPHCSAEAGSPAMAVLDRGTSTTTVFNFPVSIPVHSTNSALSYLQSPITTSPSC

HL-60 cells = assay: HL-60 cell differentiation (NBT reduction); assay type: cell-based, human; details: GM-CSF 25 ng/ml alone, day 6
Procedure: (§3) Differentiation of AML cell lines was assessed by their ability to produce superoxide as measured by reduction of NBT to formazan and by analysis of expression of CD11b surface marker by flow cytometry. For NBT reduction, each cell suspension was mixed with an equal volume of solution containing 1 mg/ml of NBT (Sigma) and 2.5 μg/ml of TPA for 30 minutes at 37° C. After incubation, cells containing the purple formazan deposits and cells devoid of NBT-reducing activity (white cells) in each sample were determined by counting 200 cells under microscope. Data is expressed as a percentage based on the following ratio: purple cells/purple+white cells. For analysis of cell surface antigens, cells were exposed to phycoerythrin (PE)-conjugated murine anti-human CD11b (DAKO Corp., Carpinteria, Calif.). Analysis of fluorescence was performed on a FACScan flow cytometer (Beckton Dickinson, Mountain View, Calif.).

NB4 cells = assay: NB4 cell differentiation (NBT reduction, CD11b); assay type: cell-based, human
Procedure: as §3

U937 cells = assay: U937 cell differentiation (NBT reduction); assay type: cell-based, human; details: GM-CSF 25 ng/ml alone, day 6
Procedure: as §3

T3 sequence (P29351 whole entry, the tested form may be a part): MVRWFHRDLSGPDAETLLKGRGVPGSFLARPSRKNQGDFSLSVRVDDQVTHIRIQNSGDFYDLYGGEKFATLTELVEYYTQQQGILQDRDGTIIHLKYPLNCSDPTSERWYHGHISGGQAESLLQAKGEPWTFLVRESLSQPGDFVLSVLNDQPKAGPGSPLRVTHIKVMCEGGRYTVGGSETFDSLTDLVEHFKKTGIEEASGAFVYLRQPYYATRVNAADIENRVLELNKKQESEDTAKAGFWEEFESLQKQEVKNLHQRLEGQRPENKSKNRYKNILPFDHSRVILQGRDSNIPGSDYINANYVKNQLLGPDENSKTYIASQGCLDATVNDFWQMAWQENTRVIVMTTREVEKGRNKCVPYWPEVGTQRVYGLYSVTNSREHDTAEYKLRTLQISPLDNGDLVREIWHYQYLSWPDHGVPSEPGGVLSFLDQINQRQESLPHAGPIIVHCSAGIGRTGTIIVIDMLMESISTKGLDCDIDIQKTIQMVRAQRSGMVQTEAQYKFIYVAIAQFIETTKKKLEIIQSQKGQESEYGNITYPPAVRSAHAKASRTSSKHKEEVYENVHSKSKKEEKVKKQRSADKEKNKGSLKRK
T2 sequence (Q12974 whole entry): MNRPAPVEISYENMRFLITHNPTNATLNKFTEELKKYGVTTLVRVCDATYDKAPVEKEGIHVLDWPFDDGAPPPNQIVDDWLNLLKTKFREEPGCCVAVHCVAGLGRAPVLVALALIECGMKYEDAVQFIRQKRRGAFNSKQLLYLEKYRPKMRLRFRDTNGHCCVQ
T4 sequence (O75365 whole entry): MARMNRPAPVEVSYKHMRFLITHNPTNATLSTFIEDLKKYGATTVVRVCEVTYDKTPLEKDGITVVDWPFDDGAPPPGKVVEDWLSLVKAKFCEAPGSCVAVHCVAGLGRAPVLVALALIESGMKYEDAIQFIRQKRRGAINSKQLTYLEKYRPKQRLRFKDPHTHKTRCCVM
T1 sequence (Q93096 whole entry): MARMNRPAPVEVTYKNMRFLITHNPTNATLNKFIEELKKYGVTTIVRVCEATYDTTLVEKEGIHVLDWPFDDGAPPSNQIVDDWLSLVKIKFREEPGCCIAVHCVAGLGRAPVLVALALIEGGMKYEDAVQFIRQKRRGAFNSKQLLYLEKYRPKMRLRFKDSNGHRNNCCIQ

Compound | inhibitory activity against GSTm8 (GSTm8) | retained PRL-1 PTPase activity (PRL-1) | effectiveness against PRL-2 (PRL-2) | inhibition at 40 µg/mL (WM9 cells; Homo sapiens, WM9, 144 h, read-out: growth inhibition of WM9 cells, single agent) [%] | effect on IFN-alpha activity in WM9 (WM9 cells; ketoconazole 40 μg/ml) | activity against WM9 cells, single agent or with IFN-alpha (WM9 cells; ketoconazole 0.625-20 μg/ml, 6 days) | inhibitory activity against SHP-1 (SHP-1) | remaining PRL-3 PTPase activity (PRL-3) | inhibition of MKP1 (MKP1) | growth inhibition of WM9 cells, single agent (WM9 cells; pentamidine 2.5-5 μg/ml, 6 days) | effect on IFN-alpha-induced growth inhibition of WM9 (WM9 cells; pentamidine, most obviously at 0.625-1.25 μg/ml) | maximal increase of NBT-positive HL-60 cells (HL-60 cells) | effect on NB4 cell differentiation (NB4 cells; GM-CSF alone) | augmentation of sodium stibogluconate-induced NB4 differentiation (NB4 cells; GM-CSF with sodium stibogluconate) | maximal increase of NBT-positive U937 cells (U937 cells)
CC(=O)N1CCN(c2ccc(OCC3COC(Cn4ccnc4)(c4ccc(Cl)cc4Cl)O3)cc2)CC1 (centres unmarked) [ketoconazole] | no obvious inhibitory activity | 60-70% | not effective | 67 | minor augmenting effect | no apparent activity | no obvious inhibitory activity | 25-40% | – | – | – | – | – | – | –
N=C(N)c1ccc(OCCCCCOc2ccc(C(=N)N)cc2)cc1 [pentamidine] | no obvious inhibitory activity | 70-80% | not effective | – | – | – | no obvious inhibitory activity | 20-30% | substantial inhibition | 86-97% | augmented IFN-alpha-induced growth inhibition | – | – | – | –
GM-CSF: recombinant human granulocyte/macrophage colony stimulating factor | – | – | – | – | – | – | – | – | – | – | – | 8-10% | no detectable effect | failed to augment | 8-10%
